In the oligonucleotide strings, read from the 5' end, every base follows the letter of its sugar. An asterisk marks phosphorothioate; unmarked linkages are phosphodiester. Other units and linkages are bracketed, terminal groups are in braces. A string of capitals states the bases alone. e = 2'-O-(2-methoxyethyl) (MOE); [5mC] = 5-methylcytosine; d = 2'-deoxy (DNA)
Legend:
T47D cells = experiment: Caspase-3 activity assay (apoptosis) in T47D cells; conditions: T47D cells, 200 nM, 48 hours, relative to untreated control
mir-21 miRNA = experiment: pGL3-mir-21 sensor luciferase assay in HeLa cells; format: cell-based, human
Source text: In order to assess the ability of miRNAs to bind predicted miRNA binding sites and regulate the expression of the luciferase reporter, in some embodiments, expression systems based on the pGL3-Control (Promega Corp., Madison Wis.) reporter vector and comprising either a mir-15a, mir-21, or a mir-23b miRNA binding site were developed and used in transient transfections of HeLa cells to determine whether the endogenous mir-15a, mir-21, or mir-23b miRNAs, respectively, could repress luciferase reporter gene expression.
The pGL3-mir-21 sensor plasmid was created by cloning the sequence ([…]; SEQ ID NO: 335), representing a sequence complementary to the mir-21 miRNA, into the Xba site of the pGL3-Control plasmid, placing the potential miRNA-binding site in the 3′UTR of the luciferase reporter. This reporter plasmid was used to transfect HeLa cells and it was observed that the endogenous mir-21 miRNA was able to inhibit luciferase expression from the pGL3-mir-21 sensor plasmid. Thus, to further evaluate the ability of the mir-21 miRNA to bind this target site encoded by the pGL3-mir-21 sensor plasmid, and to assess the ability of oligomeric compounds to interfere with mir-21-mediated silencing, pGL3-mir-21 sensor-expressing HeLa cells were treated with varying concentrations (10 nM or 50 nM) of the following oligomeric compounds: ISIS Number 327917 (SEQ ID NO: 335), a phosphorothioate uniform 2′-MOE oligomeric compound; ISIS Number 338697 ([…]; herein incorporated as SEQ ID NO: 524), a uniform 2′-MOE oligomeric compound targeting the mir-21 pri-miRNA molecule; and ISIS Number 328415 (SEQ ID NO: 524), a 2′-MOE 5-10-5 gapmer oligomeric compound targeting the mir-21 pri-miRNA. The uniform 2′-MOE phosphorothioate oligomeric compound ISIS Number 327901 (SEQ ID NO: 319) targeting an unrelated miRNA (mir-143) was used as a negative control. The data are the average of three trials and are presented in Table 44 as percent untreated control (luciferase plasmid only, not treated with oligomeric compound) luciferase expression, normalized to pRL-CMV levels.
In one embodiment, the oligomeric compounds ISIS Number 327917 (SEQ ID NO: 335), the phosphorothioate uniform 2′-MOE targeting mature mir-21; ISIS Number 358768 (SEQ ID NO: 918), the uniform 2′-MOE targeting the mir-21 pri-miRNA which stimulated the largest increase in pri-miRNA expression levels by real time quantitative RT-PCR; and ISIS Number 345382 (SEQ ID NO: 335), the 5-10-7 phosphorothioate 2′-MOE gapmer targeting mature mir-21 were selected for dose response studies in HeLa cells using the luciferase reporter system described in Example 27. ISIS Number 342683 (SEQ ID NO: 790), representing the scrambled nucleotide sequence of an unrelated PTP1B antisense oligonucleotide, was used as a negative control. HeLa cells expressing the pGL3-mir-21 sensor plasmid (described in Example 27) were treated with 1.9, 5.5, 16.7, and 50 nM of these oligomeric compounds, to assess the ability of oligomeric compounds to interfere with endogenous mir-21-mediated silencing of the pGL3-mir-21 sensor plasmid. The data are presented in Table 50 as percent untreated control (luciferase plasmid only, not treated with oligomeric compound) luciferase expression, normalized to pRL-CMV levels.

IL-12 mRNA = IL-12 mRNA in LPS-activated primary murine macrophages; format: cell-based, mouse; conditions: LPS, average of 3 treatments
IL-6 mRNA = IL-6 mRNA in LPS-activated primary murine macrophages; format: cell-based, mouse; conditions: average of 3 treatments
Method: To investigate the role of miRNAs in the immune response, oligomeric compounds of the present invention targeting miRNAs were tested for their effects upon lipopolysaccharide (LPS)-activated primary murine macrophages. Macrophages participate in the immune response, for example, in the recognition and phagocytosis of microorganisms, including bacteria. Interferon-gamma (IFN-gamma) released by helper T cells is one type of signal required for macrophage activation, and LPS can serve as an additional stimulus. LPS is a component of the gram-negative bacterial cell wall and acts as an agonist for toll-like receptor 4 (TLR4), the primary LPS receptor expressed by macrophages. The proinflammatory cytokines interleukin-12 (IL-12) and interleukin-6 (IL-6) are induced by LPS treatment of macrophages, thus the expression of the mRNAs encoding these cytokines was used to evaluate the response of macrophages to LPS following treatment with oligomeric compounds targeting miRNAs.
Macrophages were isolated as follows. Female C57B1/6 mice (Charles River Laboratories, Wilmington, Mass.) were injected intraperitoneally with 1 ml 3% thioglycollate broth (Sigma-Aldrich, St. Louis, Mo.), and peritoneal macrophage cells were isolated by peritoneal lavage 4 days later. The cells were plated in 96-well plates at 40,000 cells/well for one hour in serum-free RPMI adjusted to contain 10 mM HEPES (Invitrogen Life Technologies, Carlsbad, Calif.), allowed to adhere, then non-adherent cells were washed away and the media was replaced with RPMI containing 10 mM HEPES, 10% FBS and penicillin/streptomycin (“complete” RPMI; Invitrogen Life Technologies, Carlsbad, Calif.).
Oligomeric compounds were introduced into the cells using the non-liposomal transfection reagent FuGENE 6 Transfection Reagent (Roche Diagnostics Corp., Indianapolis, Ind.). Oligomeric compound was mixed with FuGENE 6 in 1 mL of serum-free RPMI to achieve a concentration of 10 μL FuGENE per 1000 nM oligomeric compound. The oligomeric compound/FuGENE complex was allowed to form at room temperature for 20 minutes. This mixture was diluted to the desired concentration of oligomeric compound by the addition of the appropriate volume of complete RPMI. The final ratio of FuGENE 6 to oligomeric compound was 1 μL of FuGENE 6 per 100 nM oligomeric compound. A volume of 100 μL of oligomeric compound/FuGENE/RPMI was added to each well of the 96-well plate in which the macrophages were cultured. Each oligomeric compound treatment was repeated in triplicate.
Following oligomeric compound treatment, cells were stimultated with LPS. Cells were cultured in the presence of the transfection complex for approximately 24 to 28 hours at 37° C. and 5% CO2, after which the medium containing the transfection complex was removed from the cells, and complete RPMI containing 100 ng/mL LPS (Sigma-Aldrich Corp., St. Louis, Mo.) was added to the cells for a period of approximately 24 hours. Control samples included (1) cells receiving no oligomeric compound, stimulated with LPS and (2) cells receiving neither oligomeric compound nor LPS treatment.
In another embodiment, following oligomeric compound treatment, cells were first activated by IFN-gamma, to amplify the response to LPS. Cells were cultured in the presence of the transfection complex for approximately 24 hours at 37° C. and 5% CO2, at which point the medium containing the transfection complex was removed from the cells, and complete RPMI containing 100 ng/mL recombinant mouse IFN-gamma (R&D Systems, Minneapolis, Minn.) was added to the cells. After the 4 hour treatment with INF-gamma, cells were treated with 100 ng/mL LPS for approximately 24 hours. Control samples included (1) cells receiving no oligomeric compound, stimulated with LPS and (2) cells receiving neither oligomeric compound nor LPS treatment. […]

mir-21 pri-miRNA = mir-21 pri-miRNA expression in HeLa cells (real-time RT-PCR); format: cell-based, human; conditions: HeLa cells, 100 nM, real-time RT-PCR
Method: In one embodiment, the expression of mir-21 (noted to be expressed at high levels in HeLa cells) was assessed in cells treated with oligomeric compounds. Using the transfection methods previously described, HeLa cells were treated with 100 nM of the uniform 2′-MOE oligomeric compound ISIS Number 327917 (SEQ ID NO: 335) targeting the mir-21 mature miRNA. Total RNA was isolated by lysing cells in 1 mL TRIZOL™ (Invitrogen) using the manufacturer's recommended protocols. […] Real-time RT-PCR analysis was also performed on HeLa cells treated with ISIS 327917 using a primer/probe set specific for the mir-21 pri-miRNA molecule [forward primer=ISIS 339332 ([…]; herein incorporated as SEQ ID NO.: 911), reverse primer-ISIS 339333 (TCGACTGGTGTTGCCATGA; herein incorporated as SEQ ID NO.: 912), and probe=ISIS 339334 ([…]; herein incorporated as SEQ ID NO.: 913)]. Total RNA was quantified using RiboGreen™ RNA quantification reagent (Molecular Probes, Inc. Eugene, Oreg.), expression levels observed for the target were normalized to 5.8S rRNA, and values were expressed relative to an untreated control (UTC).
Using the real-time RT-PCR methods, the expression levels of the mir-21 pri-miRNA were compared in HeLa cells treated with this nested series of uniform 2′-MOE oligomeric compounds, targeting and spanning the entire length of the mir-21 pri-miRNA. ISIS Number 358768 (SEQ ID NO: 918) targets a region flanking the predicted 5′ Drosha cleavage site in the mir-21 pri-miRNA. ISIS Number 358777 (SEQ ID NO: 927) targets a region spanning the 3′ Drosha cleavage site in the mir-21 pri-miRNA. ISIS 358779 (SEQ ID NO: 929) targets a region flanking the predicted 3′ Drosha cleavage site in the mir-21 pri-miRNA. Additionally, oligomeric compounds ISIS 327917 (SEQ ID NO: 335), a uniform 2′-MOE compound targeting the mature mir-21 miRNA, and ISIS 345382 ([…]; SEQ ID NO: 335), a 5-10-7 phosphorothioate 2′-MOE gapmer targeting mir-21, were tested for comparison. Oligomeric compound ISIS 327863 ([…]; herein incorporated as SEQ ID NO: 936), a phosphorothioate 5-10-52′-MOE gapmer, was used as scrambled control. […] Total RNA was isolated by lysing cells in 1 mL TRIZOL™ (Invitrogen) using the manufacturer's recommended protocols. real-time RT-PCR analysis was performed using the primer/probe set specific for the mir-21 pri-miRNA molecule [forward primer=ISIS 339332 (SEQ ID NO.: 911), reverse primer-ISIS 339333 (SEQ ID NO.: 912), and probe=ISIS 339334 (SEQ ID NO.: 913)]. Total RNA was quantified using RiboGreen™ RNA quantification reagent (Molecular Probes, Inc. Eugene, Oreg.), expression levels observed for each target were normalized to 5.8S rRNA, and values were expressed relative to the untreated control (UTC). Effects on expression of the mir-21 pri-miRNA molecule resulting from treatment of HeLa cells with these uniform 2′-MOE oligomeric compounds is expressed as a percentage of RNA levels in untreated control cells.

[1] = Table 44, pGL3-mir-21 sensor-expressing HeLa cells, 10 nM
[2] = Table 44, pGL3-mir-21 sensor-expressing HeLa cells, 50 nM
[3] = Table 50, pGL3-mir-21 sensor-expressing HeLa cells, 1.9 nM, normalized to pRL-CMV
[4] = Table 50, pGL3-mir-21 sensor-expressing HeLa cells, 5.5 nM, normalized to pRL-CMV
[5] = Table 50, pGL3-mir-21 sensor-expressing HeLa cells, 16.7 nM, normalized to pRL-CMV
[6] = Table 50, pGL3-mir-21 sensor-expressing HeLa cells, 50 nM, normalized to pRL-CMV

328415 (antisense eT*eG*e[5mC]*e[5mC]*eA*dT*dG*dA*dG*dA*dT*dT*d[5mC]*dA*dA*e[5mC]*eA*eG*eT*e[5mC]) [compound 328415]
Fold Increase over UTC (caspase activity) (T47D cells): 1.1
luciferase expression % UTC (mir-21 miRNA; [1]): 66.0 % UTC
luciferase expression % UTC (mir-21 miRNA; [2]): 104.4 % UTC

338697 (antisense TGCCATGAGATTCAACAGTC; all 2'-MOE, all phosphorothioate, methylation of C not given here) [compound 338697]
luciferase expression % UTC (mir-21 miRNA; [1]): 87.0 % UTC
luciferase expression % UTC (mir-21 miRNA; [2]): 84.8 % UTC

342683 (antisense CCTTCCCTGAAGGTTCCTCCTT; scrambled control, further chemistry not given here) [compound 342683]
IL-12 mRNA expression, % UTC (IL-12 mRNA; 75 nM, +IFN): 92 % UTC
IL-12 mRNA expression, % UTC (IL-12 mRNA; 75 nM, −IFN): 121 % UTC
IL-12 mRNA expression, % UTC (IL-12 mRNA; 150 nM, +IFN): 76 % UTC
IL-12 mRNA expression, % UTC (IL-12 mRNA; 150 nM, −IFN): 165 % UTC
IL-12 mRNA expression, % UTC (IL-12 mRNA; 300 nM, +IFN): 65 % UTC
IL-12 mRNA expression, % UTC (IL-12 mRNA; 300 nM, −IFN): 147 % UTC
IL-12 mRNA expression, % UTC (IL-12 mRNA; 600 nM, +IFN): 64 % UTC
IL-12 mRNA expression, % UTC (IL-12 mRNA; 600 nM, −IFN): 130 % UTC
luciferase expression % UTC (mir-21 miRNA; [3]): 127 % UTC
luciferase expression % UTC (mir-21 miRNA; [4]): 171 % UTC
luciferase expression % UTC (mir-21 miRNA; [5]): 104 % UTC
luciferase expression % UTC (mir-21 miRNA; [6]): 108 % UTC
IL-6 mRNA expression, % UTC (IL-6 mRNA; 75 nM, +IFN): 115 % UTC
IL-6 mRNA expression, % UTC (IL-6 mRNA; 75 nM, −IFN): 135 % UTC
IL-6 mRNA expression, % UTC (IL-6 mRNA; 150 nM, +IFN): 86 % UTC
IL-6 mRNA expression, % UTC (IL-6 mRNA; 150 nM, −IFN): 161 % UTC
IL-6 mRNA expression, % UTC (IL-6 mRNA; 300 nM, +IFN): 110 % UTC
IL-6 mRNA expression, % UTC (IL-6 mRNA; 300 nM, −IFN): 156 % UTC
IL-6 mRNA expression, % UTC (IL-6 mRNA; 600 nM, +IFN): 149 % UTC
IL-6 mRNA expression, % UTC (IL-6 mRNA; 600 nM, −IFN): 311 % UTC

345382 (TCAACATCAGTCTGATAAGCTA; sugars from the 5' end e5 d10 e7, all phosphorothioate, methylation of C not given here) [compound 345382]
mir-21 pri-miRNA expression % UTC (mir-21 pri-miRNA): 119 % UTC
luciferase expression % UTC (mir-21 miRNA; [3]): 101 % UTC
luciferase expression % UTC (mir-21 miRNA; [4]): 135 % UTC
luciferase expression % UTC (mir-21 miRNA; [5]): 117 % UTC
luciferase expression % UTC (mir-21 miRNA; [6]): 95 % UTC

Source: patent publication US8178506B2, “Oligomeric compounds and compositions for use in modulation of small non-coding RNAs” (Regulus Therapeutics Inc., priority 2003, dated 2012)
